Experimental data published in patent US9187472B2 (AbbVie Inc., priority 2012, dated 2015).

What was measured:
[1] = target: NAMPT (human, recombinant, C-terminally His-tagged) (Homo sapiens, UniProt P43490); assay: Time-Resolved Fluorescence Resonance Energy Transfer (TR-FRET) Binding Assay of NAMPT; conditions: without substrates; 6.8 nM NAMPT, 200 nM probe, 3 hours equilibration
Experimental: Determination of the utility of compounds having Formula (I) as binders to and inhibitors of NAMPT was performed using Time-Resolved Fluorescence Resonance Energy Transfer (TR-FRET) binding assays.
Time-Resolved Fluorescence Resonance Energy Transfer (TR-FRET) Binding Assay of NAMPT
Test compounds were serially diluted (typically 11 half log dilutions) in neat DMSO to 50× final concentrations prior to dilution with assay buffer (50 mM HEPES (NaOH), pH 7.5, 100 mM NaCl, 10 mM MgCl2, 1 mM DTT, 1% Glycerol) to 3× and 6% DMSO. Six μL were transferred to 384-well low-volume plates (Owens Corning #3673). To this, […] of a 1.5× solution containing enzyme, probe and antibody were added. Final concentrations in the 18 μL, reactions were 1× assay buffer, 2% DMSO, 6.8 nM NAMPT (human, recombinant, C-terminally His-tagged), 200 nM probe (a potent nicotinamide-competitive inhibitor conjugated to Oregon Green 488) and 1 nM Tb-anti-His antibody (Invitrogen # PV5895). Reactions were equilibrated at room temperature for 3 hours prior to reading on an Envision multi-label plate reader (Perkin Elmer; Ex=337 nm, Em=520 and 495 nm). Time-resolved FRET ratios (Em520/Em495) were normalized to controls, plotted as a function of compound concentration and fit with the four-parameter logistic equation to determine IC50s.

[2] = target: NAMPT (Homo sapiens, UniProt P43490); assay: TR-FRET Binding Assay of NAMPT with PRPP; conditions: with 200 μM PRPP and 2.5 mM ATP; 2 nM NAMPT, 2 nM probe, 16 hours equilibration
Chain of NAMPT (P43490 whole entry): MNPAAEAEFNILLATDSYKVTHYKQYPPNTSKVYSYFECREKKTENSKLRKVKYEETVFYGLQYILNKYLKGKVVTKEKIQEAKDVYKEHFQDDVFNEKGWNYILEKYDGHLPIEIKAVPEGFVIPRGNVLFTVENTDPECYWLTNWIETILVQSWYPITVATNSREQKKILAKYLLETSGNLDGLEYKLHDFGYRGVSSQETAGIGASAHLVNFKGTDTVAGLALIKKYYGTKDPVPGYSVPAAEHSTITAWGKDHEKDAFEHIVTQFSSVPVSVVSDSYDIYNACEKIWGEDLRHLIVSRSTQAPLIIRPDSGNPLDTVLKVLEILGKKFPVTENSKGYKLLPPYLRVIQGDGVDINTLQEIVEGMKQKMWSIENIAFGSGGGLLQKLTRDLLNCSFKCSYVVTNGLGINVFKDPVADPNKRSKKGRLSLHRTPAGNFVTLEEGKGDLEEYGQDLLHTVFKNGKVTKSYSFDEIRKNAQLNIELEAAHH
Experimental: Time-Resolved Fluorescence Resonance Energy Transfer (TR-FRET) Binding Assay of NAMPT with PRPP
Compound handling and data processing were identical to the assay in the absence of substrates (above). Final concentrations were 1× assay buffer, 2% DMSO, 2 nM NAMPT, 2 nM probe, 1 nM Tb-anti-His antibody (Invitrogen # PV5895), 200 μM PRPP and 2.5 mM ATP. Reactions were equilibrated for 16 hours prior to measurement to allow for potential enzymatic modification of test compounds.

[3] = test system: PC3 cells; assay: NAMPT Cell Proliferation Assay; type: cell-based; conditions: Homo sapiens, PC-3, 120 h, 5 days incubation, cell viability by Cell Titer Glo
Procedure, shortened: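 IC50 values derive from sigmoidal dose-response fits of percent inhibition of PC3 viability, measured by luminescence after 5 days of compound treatment. Cells (500/well, RPMI containing 10% heat-inactivated FBS) are allowed to attach overnight, and compounds are tested at 10-fold dilutions between 10 μM and 1×10^−5 μM.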

Chain of NAMPT (human, recombinant, C-terminally His-tagged) (P43490 whole entry): as above

Structure (SMILES) | IC50 [1] | IC50 [2] | IC50 [3]
CC(C)CCNC(=O)c1ccc(NC(=O)Nc2ccc3nccn3c2)cc1 [Example 1, 4-[(imidazo[1,2-a]pyridin-6-ylcarbamoyl)amino]-N-(3-methylbutyl)benzamide] | 92.1 nM | 0.72 nM | 60.9 nM
CC(C)CCNC(=O)c1ccc(NC(=O)Nc2ccn3ccnc3c2)cc1 [Example 2, 4-[(imidazo[1,2-a]pyridin-7-ylcarbamoyl)amino]-N-(3-methylbutyl)benzamide] | 854 nM | 39.8 nM | > 10000 nM
O=C(CC1CCCC1)Nc1ccc(NC(=O)Nc2ccc3nccn3c2)cc1 [Example 3, 2-cyclopentyl-N-{4-[(imidazo[1,2-a]pyridin-6-ylcarbamoyl)amino]phenyl}acetamide] | 31.6 nM | 0.282 nM | 36.7 nM
O=C(Nc1ccc(C(=O)NCCc2ccccc2)cc1)Nc1ccc2nccn2c1 [Example 4, 4-[(imidazo[1,2-a]pyridin-6-ylcarbamoyl)amino]-N-(2-phenylethyl)benzamide] | 413 nM | 0.516 nM | 935 nM
O=C(Nc1ccc(C(=O)NCCN2CCOCC2)cc1)Nc1ccc2nccn2c1 [Example 5, 4-[(imidazo[1,2-a]pyridin-6-ylcarbamoyl)amino]-N-[2-(morpholin-4-yl)ethyl]benzamide] | 2500 nM | 0.684 nM | 740 nM
CC(C)(CO)NC(=O)c1ccc(NC(=O)Nc2ccc3nccn3c2)cc1 [Example 6, N-(1-hydroxy-2-methylpropan-2-yl)-4-[(imidazo[1,2-a]pyridin-6-ylcarbamoyl)amino]benzamide] | 2910 nM | 0.964 nM | 6650 nM
O=C(Nc1ccc(C(=O)NCc2ccccc2)cc1)Nc1ccc2nccn2c1 [Example 7, N-benzyl-4-[(imidazo[1,2-a]pyridin-6-ylcarbamoyl)amino]benzamide] | 183 nM | 0.516 nM | 527 nM
O=C(Nc1ccc(C(=O)NCC2CCCC2)cc1)Nc1ccc2nccn2c1 [Example 8, N-(cyclopentylmethyl)-4-[(imidazo[1,2-a]pyridin-6-ylcarbamoyl)amino]benzamide] | 114 nM | 0.702 nM | 70.2 nM
O=C(Nc1ccc(C(=O)NCCCN2CCCCC2)cc1)Nc1ccc2nccn2c1 [Example 9, 4-[(imidazo[1,2-a]pyridin-6-ylcarbamoyl)amino]-N-[3-(piperidin-1-yl)propyl]benzamide] | 1720 nM | 0.459 nM | 649 nM
O=C(Nc1ccc(C(=O)NCCOc2ccccc2)cc1)Nc1ccc2nccn2c1 [Example 10, 4-[(imidazo[1,2-a]pyridin-6-ylcarbamoyl)amino]-N-(2-phenoxyethyl)benzamide] | 197 nM | 0.457 nM | 331 nM
O=C(Nc1ccc(C(=O)NCCN2CCCC2)cc1)Nc1ccc2nccn2c1 [Example 11, 4-[(imidazo[1,2-a]pyridin-6-ylcarbamoyl)amino]-N-[2-(pyrrolidin-1-yl)ethyl]benzamide] | 7600 nM | 0.271 nM | 4530 nM
CC(C)OCCNC(=O)c1ccc(NC(=O)Nc2ccc3nccn3c2)cc1 [Example 12, -[(imidazo[1,2-a]pyridin-6-ylcarbamoyl)amino]-N-[2-(propan-2-yloxy)ethyl]benzamide] | 486 nM | 0.292 nM | 213 nM
CC(C)(O)CNC(=O)c1ccc(NC(=O)Nc2ccc3nccn3c2)cc1 [Example 13, N-(2-hydroxy-2-methylpropyl)-4-[(imidazo[1,2-a]pyridin-6-ylcarbamoyl)amino]benzamide] | 653 nM | 0.663 nM | 1170 nM
COc1ccc(C(CO)NC(=O)c2ccc(NC(=O)Nc3ccc4nccn4c3)cc2)cc1 (stereo not shown) [Example 14, N-[2-hydroxy-1-(4-methoxyphenyl)ethyl]-4-[(imidazo[1,2-a]pyridin-6-ylcarbamoyl)amino]benzamide] | 741 nM | 1.22 nM | 644 nM
O=C(Nc1ccc(C(=O)NCCN2CCCC2=O)cc1)Nc1ccc2nccn2c1 [Example 15, 4-[(imidazo[1,2-a]pyridin-6-ylcarbamoyl)amino]-N-[2-(2-oxopyrrolidin-1-yl)ethyl]benzamide] | 1760 nM | 0.841 nM | 3970 nM
O=C(Nc1ccc(C(=O)NCC2CCCO2)cc1)Nc1ccc2nccn2c1 (stereo not shown) [Example 16] | 409 nM | 0.396 nM | 325 nM
CCCNC(=O)c1ccc(NC(=O)Nc2ccc3nccn3c2)cc1 [Example 17, 4-[(imidazo[1,2-a]pyridin-6-ylcarbamoyl)amino]-N-propylbenzamide] | 2960 nM | 0.401 nM | 4960 nM
O=C(Nc1ccc(C(=O)NCCCN2CCOCC2)cc1)Nc1ccc2nccn2c1 [Example 18, 4-[(imidazo[1,2-a]pyridin-6-ylcarbamoyl)amino]-N-[3-(morpholin-4-yl)propyl]benzamide] | 2730 nM | 0.418 nM | 360 nM
O=C(Nc1ccc(C(=O)Nc2ccccc2)cc1)Nc1ccc2nccn2c1 [Example 19, 4-[(imidazo[1,2-a]pyridin-6-ylcarbamoyl)amino]-N-phenylbenzamide] | 2680 nM | 0.921 nM | 6630 nM
CCC(C)CNC(=O)c1ccc(NC(=O)Nc2ccc3nccn3c2)cc1 (stereo not shown) [Example 20, 4-[(imidazo[1,2-a]pyridin-6-ylcarbamoyl)amino]-N-(2-methylbutyl)benzamide] | 404 nM | 0.169 nM | 102 nM
O=C(Nc1ccc(C(=O)NCCCN2CCCC2=O)cc1)Nc1ccc2nccn2c1 [Example 21, 4-[(imidazo[1,2-a]pyridin-6-ylcarbamoyl)amino]-N-[3-(2-oxopyrrolidin-1-yl)propyl]benzamide] | 433 nM | 0.887 nM | 899 nM
O=C(Nc1ccc(C(=O)NCC2CCOCC2)cc1)Nc1ccc2nccn2c1 [Example 22] | 399 nM | 0.277 nM | 142 nM
O=C(Nc1ccc(C(=O)NCC2CCCCO2)cc1)Nc1ccc2nccn2c1 (stereo not shown) [Example 23] | 281 nM | 0.409 nM | 41.5 nM
O=C(Nc1ccc(C(=O)NCC2CCS(=O)(=O)C2)cc1)Nc1ccc2nccn2c1 (stereo not shown) [Example 24, N-[(1,1-dioxidotetrahydrothiophen-3-yl)methyl]-4-[(imidazo[1,2-a]pyridin-6-ylcarbamoyl)amino]benzamide] | 167 nM | 0.363 nM | 691 nM
COCCC(=O)N(Cc1ccc(C#N)cc1)c1ncc(C(=O)NCc2ccn3ccnc3c2)s1 [Example 57, 2-[(4-cyanobenzyl)(3-methoxypropanoyl)amino]-N-(imidazo[1,2-a]pyridin-7-ylmethyl)-1,3-thiazole-5-carboxamide] | 5.8 nM | – | 5.76 nM
O=C(NCc1ccn2ccnc2c1)c1ccc(-c2cnn(C3CCOCC3)c2)s1 [Example 410, N-(imidazo[1,2-a]pyridin-7-ylmethyl)-5-[1-(tetrahydro-2H-pyran-4-yl)-1H-pyrazol-4-yl]thiophene-2-carboxamide] | 20.7 nM | 0.169 nM | –
CC1(Cn2cc(-c3ccc(C(=O)NCc4ccn5ccnc5c4)s3)cn2)CCN(C(=O)CSC[C@H](N)C(=O)O)CC1 [Example 1164, S-(2-{4-[(4-{5-[(imidazo[1,2-a]pyridin-7-ylmethyl)carbamoyl]thiophen-2-yl}-1H-pyrazol-1-yl)methyl]-4-methylpiperidin-1-yl}-2-oxoethyl)-L-cysteine] | – | – | 158 nM
CC1(Cn2cc(-c3ccc(C(=O)NCc4ccn5ccnc5c4)s3)cn2)CCN(C(=O)CCOCCOCCOCCOCCN)CC1 [Example 1165, 5-(1-{[1-(15-amino-4,7,10,13-tetraoxapentadecan-1-oyl)-4-methylpiperidin-4-yl]methyl}-1H-pyrazol-4-yl)-N-(imidazo[1,2-a]pyridin-7-ylmethyl)thiophene-2-carboxamide] | – | – | 577 nM
CC1(Cn2cc(-c3ccc(C(=O)NCc4ccn5ccnc5c4)s3)cn2)CCN(C(=O)CCNC(=O)CSC[C@H](N)C(=O)O)CC1 [Example 1166, S-{2-[(3-{4-[(4-{5-[(imidazo[1,2-a]pyridin-7-ylmethyl)carbamoyl]thiophen-2-yl}-1H-pyrazol-1-yl)methyl]-4-methylpiperidin-1-yl}-3-oxopropyl)amino]-2-oxoethyl}-L-cysteine] | – | – | 26.1 nM
